In US20240156861A1, “Cisplatin particles and uses thereof” (CRITITECH, INC., priority 2022, published 2024):
Where “and” joins values, the source holds several entries; their conditions need not be identical. Equal values may be shown once.

Assays:
Type in all cases: in vivo, female athymic nude mice
[1] = Blood platinum concentrations and PK parameters by ICP-MS in H69 xenograft mice
Description: (§1) A total of 130 female athymic nude mice bearing the H69 human lung carcinoma xenograft were assigned to 10 treatment groups. Group 1 (N=5 females) served as the no treatment control. All intratumoral (IT) injections were delivered as single 25 μL injections. […] The maximum concentration of cisplatin solution and LSAM-Cisplatin suspension is 1 mg/mL and 10 mg/mL, respectively. The IT maximum feasible dose (MFD) for cisplatin solution is 25 μg and 250 μg for LSAM-Cisplatin suspension. Group 2 (N=10 females) was administered 47.5% ethanol/47.5% glycerin/5% water IT on Study Days 1 and 16 and served as control. Group 3 (N=20 females) received 133 μg cisplatin intraperitoneal (IP), considered the standard of care (SOC), once weekly for 3 cycles (Days 1, 8, and 15. Group 4 (N=5) was administered a single 125 μg large surface area microparticle (LSAM)-Cisplatin IT injection on Day 1. Group 5 (N=5 females) received a single 187.5 μg LSAM-Cisplatin IT injection on Day 1. Group 6 (N=5 females) was administered a single 250 μg LSAM-Cisplatin IT injection on Day 1. Group 7 (N=20 females) received single 25 μg cisplatin IT injections on Days 1 and 16. Group 8 (N=20 females) received single 125 μg LSAM-Cisplatin IT injections on Days 1 and 16. Group 9 (N=20 females) received single 187.5 μg LSAM-Cisplatin IT injections on Days 1 and 16. Group 10 (N=20 females) received single 250 μg LSAM-Cisplatin IT injections on Days 1 and 16. One hour postdose on Day 1, blood and tumor tissue were collected for determination of platinum concentrations from 3 Group 2 females and 5 females from Groups 3 and 7-10. On Days 8, 16 (predose) and 28, blood and tumor tissue were collected for determination of platinum concentrations from 5 females/Study Day from Groups 3 and 7-10. Total platinum concentrations in blood and tumor tissues were determined by inductively coupled plasma mass spectrometry (ICP-MS).
(§2) The LSAM-Cisplatin pharmacology study was conducted to: • Quantitate platinum content in whole blood and tumors to animals administered cisplatin IP (standard of care, SOC), the MFD of IT cisplatin, and IT LSAM- Cisplatin at the maximum feasible dose (MFD) and two lower doses • Evaluate tumor response • Evaluate increased doses of IT LSAM-Cisplatin up to 2X systemic maximum tolerated dose (MTD) • Evaluate one vs two injections • Evaluate recurrences if tumors regressed
(§3) Blood and tumor-site tissue were collected from each treatment group according to Table 4.
(§4) All blood and tumor-site tissue platinum concentrations that were reported as BLQ were considered as zero for statistical purposes. Mean and standard deviation are the only statistics reported for blood and tumor-site tissue platinum concentrations and platinum blood to tumor tissue ratios. Composite maximum observed concentration (Cmax), time of Cmax (Tmax), and area under the concentration-time curve (AUC) values for platinum in blood and tumor tissue following single and repeated administration of cisplatin or LSAM-Cisplatin are reported.

[2] = test system: H69 human lung carcinoma xenograft; test: Tumor-site tissue platinum concentrations and PK parameters by ICP-MS in H69 xenograft mice;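 on Individual Tumor-Site Tissue Platinum Concentrations: unit μg/g tissue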;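 on Mean Tumor-Site Tissue Platinum Concentrations: unit μg/g tissue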
Description: as §1, §2, §3, §4

[3] = Platinum blood to tumor-site tissue concentration ratios in H69 xenograft mice; conditions: for Individual platinum blood to tumor-site tissue concentration ratio: individual animals
Description: as §1, §4
Platinum Cmax, Tmax, and AUC values for single-dose blood and tumor-site tissue data are provided in Table 8 and Table 9, respectively. Platinum Cmax, Tmax, and AUC values for multi-dose blood and tumor-site tissue data are provided in Table 10 and Table 11, respectively. Mean single-dose blood platinum concentrations are plotted in FIG. 20. Mean single-dose tumor-site tissue platinum concentrations are plotted in FIG. 21. Mean multiple-dose blood platinum concentration data are plotted in FIG. 22. Mean multiple-dose tumor-site tissue platinum concentration data are plotted in FIG. 23.

[4] = Group 3: 6 mg/kg IP on Days 1, 8, 15, Day 1 (1 hour postdose)
[5] = Group 3: 6 mg/kg IP on Days 1, 8, 15, Day 1 (1 hour postdose), 6 mg/kg
[6] = Group 3: 6 mg/kg IP on Days 1, 8, 15, Day 8 (pre-dose)
[7] = Group 3: 6 mg/kg IP on Days 1, 8, 15, Day 16
[8] = Group 3: 6 mg/kg IP on Days 1, 8, 15, Day 16, 6 mg/kg
[9] = Group 3: 6 mg/kg IP on Days 1, 8, 15, Day 28
[10] = Group 3: 6 mg/kg IP on Days 1, 8, 15, Day 28, 6 mg/kg
[11] = multiple doses, 6 mg/kg IP on Days 1, 8, and 15
[12] = multiple doses, ~1.1 mg/kg IT on Days 1 and 16
[13] = single dose Day 1, ~1.1 mg/kg IT

## N.N.[Cl][Pt][Cl] [Cisplatin]
[1]; 6 mg/kg IP (SOC) versus ~1.1 mg/kg IT Days 1 and 16
  Day 28 blood platinum concentrations, IP versus IT: higher
[1]; [4]
  Mean Blood Platinum Concentrations: 793 ng/mL
[1]; [5]
  Individual Blood Platinum Concentrations: 977 ng/mL and 221 ng/mL and 891 ng/mL and 1040 ng/mL and 838 ng/mL
[1]; [6]
  Mean Blood Platinum Concentrations: 368 ng/mL
[1]; Group 3: 6 mg/kg IP on Days 1, 8, 15, Day 8 (pre-dose), 6 mg/kg
  Individual Blood Platinum Concentrations: 441 ng/mL and 304 ng/mL and 428 ng/mL and 241 ng/mL and 426 ng/mL
[1]; [7]
  Mean Blood Platinum Concentrations: 1180 ng/mL
[1]; [8]
  Individual Blood Platinum Concentrations: 884 ng/mL and 1310 ng/mL and 1270 ng/mL and 1110 ng/mL and 1330 ng/mL
[1]; [9]
  Mean Blood Platinum Concentrations: 396 ng/mL
[1]; [10]
  Individual Blood Platinum Concentrations: 493 ng/mL and 472 ng/mL and 363 ng/mL and 188 ng/mL and 465 ng/mL
[1]; Group 7: ~1.1 mg/kg IT on Days 1 and 16, Day 1 (1 hour postdose)
  Mean Blood Platinum Concentrations: 189 ng/mL
[1]; Group 7: ~1.1 mg/kg IT on Days 1 and 16, Day 1 (1 hour postdose), 1.1 mg/kg
  Individual Blood Platinum Concentrations: 160 ng/mL and 242 ng/mL and 181 ng/mL and 193 ng/mL and 171 ng/mL
[1]; Group 7: ~1.1 mg/kg IT on Days 1 and 16, Day 8
  Mean Blood Platinum Concentrations: 57.6 ng/mL
[1]; Group 7: ~1.1 mg/kg IT on Days 1 and 16, Day 8, 1.1 mg/kg
  Individual Blood Platinum Concentrations: 69.9 ng/mL and BLQ (below the limit of quantitation (<50 ng/mL) and treated as zero for statistical purposes) and 86.7 ng/mL and 79 ng/mL and 52.6 ng/mL
[1]; Group 7: ~1.1 mg/kg IT on Days 1 and 16, Day 16 (predose)
  Mean Blood Platinum Concentrations: 11.4 ng/mL
[1]; Group 7: ~1.1 mg/kg IT on Days 1 and 16, Day 16 (predose), 1.1 mg/kg
  Individual Blood Platinum Concentrations: BLQ (below the limit of quantitation (<50 ng/mL) and treated as zero for statistical purposes) (4×) and 56.8 ng/mL
[1]; Group 7: ~1.1 mg/kg IT on Days 1 and 16, Day 28
  Mean Blood Platinum Concentrations: 61.1 ng/mL
[1]; Group 7: ~1.1 mg/kg IT on Days 1 and 16, Day 28, 1.1 mg/kg
  Individual Blood Platinum Concentrations: 68.1 ng/mL and 68.3 ng/mL and 57.8 ng/mL and 57.4 ng/mL and 53.8 ng/mL
[1]; [11]
  Blood Platinum AUC0-t: 486,824 ng · hr/mL
  Blood Platinum Cmax: 1180 ng/mL
  Blood Platinum Tmax: 384 h
[1]; [12]
  Blood Platinum AUC0-t: 40,709 ng · hr/mL
  Blood Platinum Cmax: 189 ng/mL
  Blood Platinum Tmax: 1 h
[1]; single dose Day 1, 6 mg/kg IP
  Blood Platinum AUC0-192: 111,272 ng · hr/mL
  Blood Platinum Cmax: 793 ng/mL
  Blood Platinum Tmax: 1 h
[1]; [13]
  Blood Platinum AUC0-192: 23,645 ng · hr/mL
  Blood Platinum AUC0-384: 30,269 ng · hr/mL
  Blood Platinum Cmax: 189 ng/mL
  Blood Platinum Tmax: 1 h
[2]; [4]
  Mean Tumor-Site Tissue Platinum Concentrations: 0.734 µg/g
[2]; [5]
  Individual Tumor-Site Tissue Platinum Concentrations: 0.901 μg/g and BLQ (below the limit of quantitation (<0.650 μg/g) and treated as zero for statistical purposes) and 1.15 μg/g and 0.777 μg/g and 0.843 μg/g
[2]; [6]
  Individual Tumor-Site Tissue Platinum Concentrations: BLQ (below the limit of quantitation (<0.650 μg/g) and treated as zero for statistical purposes)
[2]; Group 3: 6 mg/kg IP on Days 1, 8, 15, Day 8 (pre-dose), BLQ treated as zero
  Mean Tumor-Site Tissue Platinum Concentrations: 0.00 µg/g
[2]; [7]
  Mean Tumor-Site Tissue Platinum Concentrations: 1.39 µg/g
[2]; [8]
  Individual Tumor-Site Tissue Platinum Concentrations: 0.753 µg/g and 1.17 µg/g and 1.27 µg/g and 2.62 µg/g and 1.12 µg/g
[2]; [9]
  Mean Tumor-Site Tissue Platinum Concentrations: 0.459 µg/g
[2]; [10]
  Individual Tumor-Site Tissue Platinum Concentrations: BLQ (below the limit of quantitation (<0.650 μg/g) and treated as zero for statistical purposes) (3×) and 0.933 μg/g and 1.36 μg/g
[2]; Group 7: 1.1 mg/kg IT on Days 1 and 16, Day 1 (1 hour postdose)
  Mean Tumor-Site Tissue Platinum Concentrations: 11.3 µg/g
[2]; Group 7: 1.1 mg/kg IT on Days 1 and 16, Day 1 (1 hour postdose), 1.1 mg/kg
  Individual Tumor-Site Tissue Platinum Concentrations: 14.4 µg/g and 13.2 µg/g and 9.66 µg/g and 8.68 µg/g and 10.4 µg/g
[2]; Group 7: 1.1 mg/kg IT on Days 1 and 16, Day 8
  Mean Tumor-Site Tissue Platinum Concentrations: 3.23 µg/g
[2]; Group 7: 1.1 mg/kg IT on Days 1 and 16, Day 8, 1.1 mg/kg
  Individual Tumor-Site Tissue Platinum Concentrations: 3.06 µg/g and 4.74 µg/g and 4.29 µg/g and 3.02 µg/g and 1.06 µg/g
[2]; Group 7: 1.1 mg/kg IT on Days 1 and 16, Day 16 (predose)
  Mean Tumor-Site Tissue Platinum Concentrations: 2.97 µg/g
[2]; Group 7: 1.1 mg/kg IT on Days 1 and 16, Day 16 (predose), 1.1 mg/kg
  Individual Tumor-Site Tissue Platinum Concentrations: 1.90 μg/g and 2.42 μg/g and 7.79 μg/g and 2.76 μg/g and BLQ (below the limit of quantitation (<0.650 μg/g) and treated as zero for statistical purposes)
[2]; Group 7: 1.1 mg/kg IT on Days 1 and 16, Day 28
  Mean Tumor-Site Tissue Platinum Concentrations: 9.11 µg/g
[2]; Group 7: 1.1 mg/kg IT on Days 1 and 16, Day 28, 1.1 mg/kg
  Individual Tumor-Site Tissue Platinum Concentrations: 20.2 µg/g and 8.89 µg/g and 6.35 µg/g and 7.97 µg/g and 2.16 µg/g
[2]; [11]
  Tumor-Site Tissue Platinum AUC0-t: 470 µg·h/g
  Tumor-Site Tissue Platinum Tmax: 384 h
[2]; [12]
  Tumor-Site Tissue Platinum AUC0-t: 3,728 μg · hr/g
  Tumor-Site Tissue Platinum Tmax: 1 h
[2]; single dose Day 1, 6 mg/kg IP
  Tumor-Site Tissue Platinum AUC0-192: 70.5 µg·h/g
  Tumor-Site Tissue Platinum Tmax: 1 h
[2]; [13]
  Tumor-Site Tissue Platinum AUC0-192: 1,393 μg · hr/g
  Tumor-Site Tissue Platinum AUC0-384: 1,988 μg · hr/g
  Tumor-Site Tissue Platinum Tmax: 1 h
[2]; ~1.1 mg/kg IT Days 1 and 16 versus 6 mg/kg IP Days 1, 8, 15
  mean Day 28 tumor-site tissue platinum concentrations, IT versus IP: greater than following IP administration
[3]; Group 3, 6 mg/kg cisplatin IP on Days 1, 8, and 15, sampling Day 1
  Individual platinum blood to tumor-site tissue concentration ratio: 1.084 and 0.775 and 0.134 and 0.994
[3]; Group 3, 6 mg/kg cisplatin IP on Days 1, 8, and 15, sampling Day 1, N=4
  Mean platinum blood to tumor-site tissue concentration ratio: 0.747
[3]; Group 3, 6 mg/kg cisplatin IP on Days 1, 8, and 15, sampling Day 16
  Individual platinum blood to tumor-site tissue concentration ratio: 1.174 and 1.120 and 1.000 and 0.424 and 1.188
[3]; Group 3, 6 mg/kg cisplatin IP on Days 1, 8, and 15, sampling Day 16, N=5
  Mean platinum blood to tumor-site tissue concentration ratio: 0.981
[3]; Group 3, 6 mg/kg cisplatin IP on Days 1, 8, and 15, sampling Day 28
  Individual platinum blood to tumor-site tissue concentration ratio: 0.506 and 0.267
[3]; Group 3, 6 mg/kg cisplatin IP on Days 1, 8, and 15, sampling Day 28, N=2
  Mean platinum blood to tumor-site tissue concentration ratio: 0.386
[3]; Group 7, ~1.1 mg/kg cisplatin IT on Days 1 and 16, sampling Day 1, 1.1 mg/kg
  Individual platinum blood to tumor-site tissue concentration ratio: 0.011 and 0.018 and 0.019 and 0.022 and 0.016
[3]; Group 7, ~1.1 mg/kg cisplatin IT on Days 1 and 16, sampling Day 1, N=5
  Mean platinum blood to tumor-site tissue concentration ratio: 0.017
[3]; Group 7, ~1.1 mg/kg cisplatin IT on Days 1 and 16, sampling Day 8, 1.1 mg/kg
  Individual platinum blood to tumor-site tissue concentration ratio: 0.023 and 0.000 and 0.020 and 0.026 and 0.053
[3]; Group 7, ~1.1 mg/kg cisplatin IT on Days 1 and 16, sampling Day 8, N=5
  Mean platinum blood to tumor-site tissue concentration ratio: 0.024
[3]; Group 7, ~1.1 mg/kg cisplatin IT on Days 1 and 16, sampling Day 16, 1.1 mg/kg
  Individual platinum blood to tumor-site tissue concentration ratio: 0.000 (3×) and 0.023
[3]; Group 7, ~1.1 mg/kg cisplatin IT on Days 1 and 16, sampling Day 16, N=4
  Mean platinum blood to tumor-site tissue concentration ratio: 0.006
[3]; Group 7, ~1.1 mg/kg cisplatin IT on Days 1 and 16, sampling Day 28, 1.1 mg/kg
  Individual platinum blood to tumor-site tissue concentration ratio: 0.003 and 0.008 and 0.009 and 0.007 and 0.025
[3]; Group 7, ~1.1 mg/kg cisplatin IT on Days 1 and 16, sampling Day 28, N=5
  Mean platinum blood to tumor-site tissue concentration ratio: 0.010
[3]; repeated IT administration of 1.1 mg/kg
  systemic exposure to platinum based on mean blood to tumor-site tissue ratios: negligible
